How the values were obtained:
Format in all cases: biochemical
human DYRK1A = biological target: T1, human DYRK1A (Homo sapiens, UniProt Q13627); test: DYRK1A enzyme assay (ADP-Glo); conditions: ADP-Glo, ATP 60 μM; read-out: DYRK1A IC50
T1 construct: Recombinant full-length DYRK1A (expressed in E. Coli cells with an N-terminal GST tag); GST (N); purchased SignalChem D09-10G; host or cells: E. coli
Procedure: The ability of compounds to inhibit human DYRK1A kinase activities was determined using a commercially available ADP-Glo™ Kinase Assay kit (Promega, Cat #V9102) according to the manufacturer's protocol.
Recombinant full-length DYRK1A (expressed in E. Coli cells with an N-terminal GST tag) was purchased from SignalChem (Cat #D09-10G). The DYRK substrate peptide (DYRKtide, sequence: […]) was purchased from SignalChem (Cat #D96-58). This assay, run in a 384-well plate format, is a generic method for measuring kinase activities using an ADP-Glo Kinase Assay Kit. The basic assay procedure involves two steps: (1) Enzymatic step: inhibitors are incubated with the kinase and then ATP (included in the ADP-Glo Kinase Assay Kit) and the DYRKtide are added to start the enzymatic reaction; (2) Detection step: after the kinase reaction, first ADP-Glo™ Reagent is added to terminate the kinase reaction and deplete the remaining ATP. Second, the Kinase Detection Reagent is added to simultaneously convert ADP to ATP and allow the newly synthesized ATP to be measured using a luciferase/luciferin reaction. The light generated is measured using a luminometer.
(§1) Briefly, DYRK1A (3 nM) in the enzymatic buffer solutions (40 mM Tris, pH 7.5, 20 mM MgCl2, 0.1 mg/ml BSA, 50 μM DTT) were mixed with various concentrations of inhibitors (dissolved in 100% DMSO). These solutions were incubated for 30 minutes at 25° C., and subsequently a mixture of substrate peptide and ATP was added with the final peptide and ATP concentrations at 20 μM and 60 μM, respectively. The final reaction mixture of enzyme-substrate-ATP-compound was incubated for 60 minutes at 25° C.
(§2) Afterwards ADP-Glo™ Reagent was added and the mixture was incubated at 25° C. for 60 minutes. Then Kinase Detection Reagent was added and the final mixture was incubated at 25° C. for 60 minutes. The luminescence signal of the final solution was measured on an Envision instrument (PerkinElmer). The percent (%) inhibition at each concentration of a compound is calculated relative to the luminescence signal in the Max and Min control wells contained within each assay plate. […] The concentrations and percent inhibition values for a test compound are plotted and the concentration of the compound required to achieve 50% inhibition (IC50) is determined with a four-parameter logistic dose response equation.

human CLK1 = biological target: T2, human CLK1 (Homo sapiens, UniProt P49759); test: CLK1 enzyme assay (ADP-Glo); conditions: ADP-Glo, ATP 10 μM; read-out: CLK1 IC50
T2 construct: Recombinant human CLK1 (129-end); GST (N); purchased SignalChem C57-11G; host or cells: Sf9 insect cells
Procedure: The ability of compounds to inhibit human CLK1 kinase activities was determined using a commercially available ADP-Glo™ Kinase Assay kit (Promega, Cat #V9102) according to the manufacturer's protocol.
(§3) Recombinant human CLK1 (129-end) (expressed in Sf9 insect cells with an N-terminal GST tag) was purchased from SignalChem (Cat #C57-11G). Recombinant full length human MBP (expressed in E. Coli cells with an N-terminal GST tag.) was purchased from SignalChem (Cat #M42-54G). This assay, run in a 384-well plate format, is a generic method for measuring kinase activities using an ADP-Glo Kinase Assay Kit. The basic assay procedure involves two steps: (1) Enzymatic step: inhibitors are incubated with the kinase and then ATP (included in the ADP-Glo Kinase Assay Kit) and the MBP protein are added to start the enzymatic reaction; (2) Detection step: after the kinase reaction, first ADP-Glo™ Reagent is added to terminate the kinase reaction and deplete the remaining ATP. Second, the Kinase Detection Reagent is added to simultaneously convert ADP to ATP and allow the newly synthesized ATP to be measured using a luciferase/luciferin reaction. The light generated is measured using a luminometer.
as §1, with “Briefly, CLK1 (16” for “Briefly, DYRK1A (3”, “at 2” for “at 20”, “and 10” for “and 60”
as §2

human HIPK1 = biological target: T3, human HIPK1 (Homo sapiens, UniProt Q86Z02); test: HIPK1 enzyme assay (ADP-Glo); conditions: ADP-Glo, ATP 5 μM; read-out: HIPK1 IC50
T3 construct: Recombinant human HIPK1 (156-555); GST (N); purchased SignalChem H03-11G; host or cells: Sf9 insect cells
Procedure: The ability of compounds to inhibit human HIPK1 kinase activities was determined using a commercially available ADP-Glo™ Kinase Assay kit (Promega, Cat #V9102) according to the manufacturer's protocol.
as §3, with “HIPK1 (156-555)” for “CLK1 (129-end)”, “#H03-11G).” for “#C57-11G).”, “tag)” for “tag.)”
as §1, with “Briefly, HIPK1 (4” for “Briefly, DYRK1A (3”, “at 0.05 mg/ml” for “at 20 μM”, “and 5” for “and 60”, “for 90” for “for 60”
Afterwards ADP-Glo™ Reagent was added and the mixture was incubated at 25° C. for 60 minutes. Then Kinase Detection Reagent was added, and the final mixture was incubated at 25° C. for 60 minutes. The luminescence signal of the final solution was measured on an Envision instrument (PerkinElmer). The percent (%) inhibition at each concentration of a compound is calculated relative to the luminescence signal in the Max and Min control wells contained within each assay plate. […] The concentrations and percent inhibition values for a test compound are plotted and the concentration of the compound required to achieve 50% inhibition (IC50) is determined with a four-parameter logistic dose response equation.

T3 sequence (Q86Z02 156-555): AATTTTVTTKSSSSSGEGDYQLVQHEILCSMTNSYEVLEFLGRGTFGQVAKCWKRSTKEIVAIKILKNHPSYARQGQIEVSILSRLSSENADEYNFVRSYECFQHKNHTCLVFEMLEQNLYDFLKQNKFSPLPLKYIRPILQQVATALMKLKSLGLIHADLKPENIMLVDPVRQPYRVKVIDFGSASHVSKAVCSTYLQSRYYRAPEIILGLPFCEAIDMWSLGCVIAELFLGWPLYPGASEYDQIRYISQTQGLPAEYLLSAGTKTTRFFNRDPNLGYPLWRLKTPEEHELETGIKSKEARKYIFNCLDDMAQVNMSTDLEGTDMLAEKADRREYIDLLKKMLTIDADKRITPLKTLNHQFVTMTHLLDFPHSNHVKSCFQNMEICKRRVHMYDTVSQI
T2 sequence (P49759 129-484 limits assumed): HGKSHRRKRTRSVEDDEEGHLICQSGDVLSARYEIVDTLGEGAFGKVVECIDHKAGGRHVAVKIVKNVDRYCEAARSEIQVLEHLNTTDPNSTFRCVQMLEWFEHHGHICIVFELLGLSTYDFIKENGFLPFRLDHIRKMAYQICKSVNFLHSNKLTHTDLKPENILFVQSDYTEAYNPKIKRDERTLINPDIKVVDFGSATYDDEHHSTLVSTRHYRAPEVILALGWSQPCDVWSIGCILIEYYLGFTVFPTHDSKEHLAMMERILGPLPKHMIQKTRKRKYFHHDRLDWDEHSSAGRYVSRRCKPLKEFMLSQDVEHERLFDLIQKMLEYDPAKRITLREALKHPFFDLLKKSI

Structure (SMILES) | IC50 (human DYRK1A) [µM] | IC50 (human CLK1) [µM] | IC50 (human HIPK1) [µM]
CN(CC1CC1)C1=N/C(=C\c2ccc3ncsc3c2)C(=O)N1 [Example 33, (Z)-5-(benzo[d]thiazol-6-ylmethylene)-2-((cyclopropylmethyl)(methyl)amino)-3,5-dihydro-4H-imidazol-4-one] | 1 to 10 | 0.1 to 1 | > 10
O=C1NC(N(Cc2ccccc2)c2ccccc2)=N/C1=C\c1ccc2[nH]cnc2c1 [Example 35, (Z)-5-((1H-benzo[d]imidazol-5-yl)methylene)-2-(benzyl(phenyl)amino)-3,5-dihydro-4H-imidazol-4-one] | 1 to 10 | 0.1 to 1 | > 10
NC(=O)CCN(C1=N/C(=C\c2ccc3c(c2)OCO3)C(=O)N1)c1ccccc1 [Example 36, (Z)-3-((4-(benzo[d][1,3]dioxol-5-ylmethylene)-5-oxo-4,5-dihydro-1H-imidazol-2-yl)(phenyl)amino)propanamide] | 0.1 to 1 | 0.1 to 1 | > 10
CN(C1=N/C(=C\c2ccc3c(c2)OCO3)C(=O)N1)c1ccc(N)cc1 [Example 37, (Z)-2-((4-aminophenyl)(methyl)amino)-5-(benzo[d][1,3]dioxol-5-ylmethylene)-3,5-dihydro-4H-imidazol-4-one] | 1 to 10 | 1 to 10 | > 10
COc1ccc(N(C)C2=N/C(=C\c3ccc4ncsc4c3)C(=O)N2)cc1 [Example 38, (Z)-5-(benzo[d]thiazol-6-ylmethylene)-2-((4-methoxyphenyl)(methyl)amino)-3,5-dihydro-4H-imidazol-4-one] | 0.1 to 1 | 0.1 to 1 | 1 to 10
O=C1NC(N(CC2CC2)c2ccccc2)=N/C1=C\c1ccc2c(c1)OCCO2 [Example 39, (Z)-2-((cyclopropylmethyl)(phenyl)amino)-5-((2,3-dihydrobenzo[b][1,4]dioxin-6-yl)methylene)-3,5-dihydro-4H-imidazol-4-one] | 1 to 10 | > 10 | > 10
O=C1NC(N(Cc2ccccc2)c2ccccc2)=N/C1=C\c1ccc2ncsc2c1 [Example 41, (Z)-5-(benzo[d]thiazol-6-ylmethylene)-2-(benzyl(phenyl)amino)-3,5-dihydro-4H-imidazol-4-one] | 0.1 to 1 | < 0.1 | > 10
O=C1/C(=C/c2ccc3ncsc3c2)N=C(N(Cc2ccccc2)c2ccccc2)N1Cc1ccccc1 [Example 42, (Z)-5-(benzo[d]thiazol-6-ylmethylene)-3-benzyl-2-(benzyl(phenyl)amino)-3,5-dihydro-4H-imidazol-4-one] | > 10 | > 10 | > 10
CN(C1=N/C(=C\c2ccc3ncsc3c2)C(=O)N1)c1ccc([N+](=O)[O-])cc1 [Example 43, (Z)-5-(benzo[d]thiazol-6-ylmethylene)-2-(methyl(4-nitrophenyl)amino)-3,5-dihydro-4H-imidazol-4-one] | 1 to 10 | 1 to 10 | > 10
CN(C1=N/C(=C\c2ccc3ncsc3c2)C(=O)N1)c1ccc(N)cc1 [Example 44, (Z)-2-((4-aminophenyl)(methyl)amino)-5-(benzo[d]thiazol-6-ylmethylene)-3,5-dihydro-4H-imidazol-4-one] | 0.1 to 1 | 0.1 to 1 | 1 to 10
CC(C)NC1=N/C(=C\c2ccc3ncsc3c2)C(=O)N1C [Example 45, (Z)-5-(benzo[d]thiazol-6-ylmethylene)-2-(isopropylamino)-3-methyl-3,5-dihydro-4H-imidazol-4-one] | 0.1 to 1 | < 0.1 | 1 to 10
Cn1cnc2ccc(/C=C3\N=C(Nc4ccccc4)NC3=O)cc21 [Example 46, (Z)-5-((1-methyl-1H-benzo[d]imidazol-6-yl)methylene)-2-(phenylamino)-3,5-dihydro-4H-imidazol-4-one] | < 0.1 | < 0.1 | 0.1 to 1
O=C1NC(Nc2ccc3ncsc3c2)=N/C1=C\c1ccc2c(c1)OCO2 [Example 47, (Z)-5-(benzo[d][1,3]dioxol-5-ylmethylene)-2-(benzo[d]thiazol-6-ylamino)-3,5-dihydro-4H-imidazol-4-one] | > 10 | > 10 | > 10
CC(C)NC1=N/C(=C\c2ccc3scnc3c2)C(=O)N1 [Example 49, (Z)-5-(benzo[d]thiazol-5-ylmethylene)-2-(isopropylamino)-3,5-dihydro-4H-imidazol-4-one] | > 10 | > 10 | > 10
O=C1NC(NC23CC4CC(CC(C4)C2)C3)=N/C1=C\c1ccc2scnc2c1 [Example 50, (Z)-2-(adamantan-1-ylamino)-5-(benzo[d]thiazol-5-ylmethylene)-3,5-dihydro-4H-imidazol-4-one] | 1 to 10 | > 10 | > 10
O=C1NC(Nc2ccccc2)=N/C1=C\c1ccc2[nH]ccc2c1 [Example 51, (Z)-5-((1H-indol-5-yl)methylene)-2-(phenylamino)-3,5-dihydro-4H-imidazol-4-one] | > 10 | > 10 | > 10
O=C1NC(Nc2ccccc2)=N/C1=C\c1ccc2occc2c1 [Example 52, (Z)-5-(benzofuran-5-ylmethylene)-2-(phenylamino)-3,5-dihydro-4H-imidazol-4-one] | > 10 | 0.1 to 1 | > 10

From patent US12643887B2, “Heterocyclic derivatives with cardiomyocyte proliferation activity for treatment of heart diseases” (Tongji University, priority 2019, dated 2026)
